Data on 33 compounds can be found in the METLIN SMRT retention time set (Domingo-Almenara et al. 2019).

This data set can be described thus: gradient 5% acetonitrile 3 min, to 50% in 2 min, to 85% in 15 min, held 3 min, 100 µL/min. Particulars: column: Zorbax Extend-C18 2.1 x 50 mm; eluents: water / acetonitrile, 0.1% formic acid. An outline of the steps: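 Pure standards were run in mixtures of ~100 molecules by HPLC coupled to a quadrupole time-of-flight mass spectrometer. The column was a Zorbax Extend-C18 (2.1 × 50 mm, 1.8 μm) at 100 μL/min, with water and acetonitrile each containing 0.1% formic acid, in positive and negative ionization mode. Dead and dwell volumes were 40 μL and 900 μL. Retention time was taken from computationally picked adduct peaks, each manually inspected, with data collected over 3 months.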
`Cc1ccc(C)c(S(=O)(=O)N(C)CC2CCOCC2)c1` showed an RP-LC retention time of 913 s. Under `O=C(NC1CC1)c1nc(Nc2ccc(F)cc2)c2ccccc2n1` stands 712 s; under `COc1ccc(CNC(=O)c2csc(-c3cn(C)c4ncccc34)n2)c(OC)c1`, 924 s.

For `CC(=O)N(Cc1nn(C)c2c1CN(S(=O)(=O)c1ccccc1)CC2)c1ccccc1`, the RP-LC retention time came to 766 s. Compound `COC(=O)c1ccccc1NC(=O)C1CCCN(c2nc3c(s2)c(C)nn3-c2ccccc2)C1` (stereo not drawn) yielded an RP-LC retention time of 1380 s. Under `CC1CCCCN1CCCNC(=O)CCCn1c(=O)c2cccn2c2ccc(F)cc21` (stereo not drawn) stands 639 s. Then `O=C1NCCCn2nc(C3CCN(C(=O)Nc4cccc(C(F)(F)F)c4)CC3)cc21`, with 721 s; and `Cc1ccc(CNc2c(-c3ccc(F)c(F)c3)nc3ncccn23)cc1`, with 890 s. `Cc1ccc(CN2CCN(C3CCN(S(=O)(=O)c4cccc(C)c4)CC3)C(=O)C2=O)cc1`: the RP-LC retention time was 873 s. `COc1ccc2nc(C(=O)N(C)Cc3ccccc3)cn2n1` registered an RP-LC retention time of 790 s. Then `CCOC(=O)N1CCN(c2cnc3cc(S(=O)(=O)N4CCCCC4)ccc3n2)CC1`, with 891 s. `CCC(=O)Nc1ccc(-n2cnc(C(=O)N3CCN(c4cc(C)ccc4C)CC3)c2)nc1` gave an RP-LC retention time of 863 s. Compound `Cc1ccc(CNC(=O)C2(C)CCN(C(=O)c3ccccc3C(F)(F)F)CC2)cc1` gave an RP-LC retention time of 894 s. Under `O=C(Cn1cccc1-c1nnc(C2CCC2)o1)Nc1ccc(F)cc1` stands 897 s. With `Cc1noc(C)c1CN1CCC(NC(=O)c2ccc3cc[nH]c3c2)CC1`, the RP-LC retention time is 596 s.

Regarding `CCOc1ccc(NC(=O)NCCc2cn(C)c3ncccc23)cc1`, the RP-LC retention time stood at 676 s. The compound `COc1ccccc1NC(=O)Nc1ccc2c(c1)N(S(=O)(=O)c1cccs1)CCC2` came in with an RP-LC retention time of 967 s. Regarding `Cc1nc(-c2nnn(-c3ccccc3)c2C)no1`, the RP-LC retention time stood at 769 s. Under `Cc1cc(-n2nnc(C(=O)O)c2-c2ccncc2)ccc1F` stands 654 s. Under `O=C(CCc1conc1-c1ccc(F)cc1)NCc1ccc2c(c1)OCO2` stands 848 s; under `O=C(NCc1cccs1)C1CCN(C(=O)C2Sc3ccccc3NC2=O)CC1` (stereo not drawn), 714 s; under `O=C(c1ccc2c(c1)CCN2C(=O)C1CCC1)N1CCCC1`, 589 s. Then `Cc1nc(CCNC(=O)C2CCN(S(=O)(=O)c3ccccc3C(F)(F)F)CC2)cs1`, with 753 s.

`c1cnn(-c2cc(N3CCSCC3)ncn2)c1` returned an RP-LC retention time of 833 s. Under `CC(C(=O)NCC1CCCO1)N1C(=O)C2CCCCN2C(=O)c2ccccc21` (stereo not drawn) stands 664 s; under `O=C(Cc1ccc(Cl)cc1)NCc1nc(-c2ccc(-c3csc(C4CC4)n3)cc2)no1`, 1110 s. Under `CCc1ccc(-c2nn(C)c(=O)c3c2CCCC3)cc1S(=O)(=O)N1CCC(C(N)=O)CC1` stands 736 s. `CCOC(=O)C1CCC(CNC(=O)N2CCN(Cc3nc4ccccc4o3)CC2)CC1` (stereo not drawn) showed an RP-LC retention time of 676 s. Then `COc1ccc(-c2cc3c4nnc(SCC(=O)NCc5ccc(SC)cc5)n4ccn3n2)cc1`, with 832 s. For the compound `Cc1cccc(N2CCN(C(=O)c3[nH]c(C)c(S(=O)(=O)N4CCOCC4)c3C)CC2C)c1` (stereo not drawn), the RP-LC retention time amounted to 752 s. `CCOC(=O)c1nc(Nc2ccccc2F)c2ccccc2n1` gave an RP-LC retention time of 812 s. For `Cc1ccc2c(Nc3ccc(F)cc3F)c(C(=O)N3CCCC3)cnc2n1`, the RP-LC retention time turned out to be 596 s. `CCNc1nc(C)cc(N2CCN(S(=O)(=O)c3ccc(Cl)cc3)CC2)n1` had an RP-LC retention time of 735 s.
